Tests used:
Test in all cases: biochemical
Design in all cases: thermal shift assay (real-time PCR machine), melting temperature shift of recombinant bromodomains at 2 uM protein
[1] = molecular target: T1, PB1(6) (Homo sapiens, UniProt Q86U86)
T1 construct: gene PBRM1; bromodomain 6
Experimental: (§1) The recombinant bromodomains at 2 μM were mixed with 10 μM inhibitors. The assays and data evaluation for melting temperatures were performed using a Real-Time PCR Mx3005p machine (Stratagene) and the protocols previously described. Experiments profiling the final compound (PNZ5) were performed in quadruplicates. […] Since its discovery in our own labs, similar inhibitors have also been disclosed by researchers at Boehringer Ingelheim [reference: patent, WO 2014/154760 [31]]. The inhibitor contains two possible acetyl-lysine mimetic moieties. In order to obtain molecular insights on the interaction of the developed inhibitor, the crystal structure of the first bromodomain of BRD4 in complex with PNZ5 was solved at 1.85 Å (Figure 2C and Supplementary Table 4, 5FBX.pdb). The inhibitor, coordinating residues and water molecules were well defined by the electron density. The dimethylisoxazole moiety mimicked the acetyl lysine side chain and formed two canonical hydrogen-bond interactions with Asn140 and water mediated hydrogen-bond with Tyr 97 (Figure 2C). The common network of waters within the binding site was also conserved in the BRD4(1)-PNZ5 complex. The compound was further stabilized by lipophilic interactions with residues forming the binding site Leu92, Leu94, Ile146. The [compound left out] substituent was well accommodated next to the WPF shelf, as well as the N1-methyl substituent that formed hydrophobic interactions with Trp81. The carbonyl on the isoindolinone established a water-mediated hydrogen bond with Lys91.

[2] = molecular target: T2, PCAF (Homo sapiens, UniProt Q92831)
T2 construct: gene KAT2B; bromodomain
Experimental: as §1

[3] = molecular target: T3, SMARCA4 (Homo sapiens, UniProt P51532)
T3 construct: bromodomain
Experimental: as §1

[4] = molecular target: T4, ATAD2 (Homo sapiens, UniProt Q6PL18)
T4 construct: bromodomain
Experimental: as §1

[5] = molecular target: T5, PB1(5) (Homo sapiens, UniProt Q86U86)
T5 construct: gene PBRM1; bromodomain 5
T5 sequence (Q86U86 whole entry): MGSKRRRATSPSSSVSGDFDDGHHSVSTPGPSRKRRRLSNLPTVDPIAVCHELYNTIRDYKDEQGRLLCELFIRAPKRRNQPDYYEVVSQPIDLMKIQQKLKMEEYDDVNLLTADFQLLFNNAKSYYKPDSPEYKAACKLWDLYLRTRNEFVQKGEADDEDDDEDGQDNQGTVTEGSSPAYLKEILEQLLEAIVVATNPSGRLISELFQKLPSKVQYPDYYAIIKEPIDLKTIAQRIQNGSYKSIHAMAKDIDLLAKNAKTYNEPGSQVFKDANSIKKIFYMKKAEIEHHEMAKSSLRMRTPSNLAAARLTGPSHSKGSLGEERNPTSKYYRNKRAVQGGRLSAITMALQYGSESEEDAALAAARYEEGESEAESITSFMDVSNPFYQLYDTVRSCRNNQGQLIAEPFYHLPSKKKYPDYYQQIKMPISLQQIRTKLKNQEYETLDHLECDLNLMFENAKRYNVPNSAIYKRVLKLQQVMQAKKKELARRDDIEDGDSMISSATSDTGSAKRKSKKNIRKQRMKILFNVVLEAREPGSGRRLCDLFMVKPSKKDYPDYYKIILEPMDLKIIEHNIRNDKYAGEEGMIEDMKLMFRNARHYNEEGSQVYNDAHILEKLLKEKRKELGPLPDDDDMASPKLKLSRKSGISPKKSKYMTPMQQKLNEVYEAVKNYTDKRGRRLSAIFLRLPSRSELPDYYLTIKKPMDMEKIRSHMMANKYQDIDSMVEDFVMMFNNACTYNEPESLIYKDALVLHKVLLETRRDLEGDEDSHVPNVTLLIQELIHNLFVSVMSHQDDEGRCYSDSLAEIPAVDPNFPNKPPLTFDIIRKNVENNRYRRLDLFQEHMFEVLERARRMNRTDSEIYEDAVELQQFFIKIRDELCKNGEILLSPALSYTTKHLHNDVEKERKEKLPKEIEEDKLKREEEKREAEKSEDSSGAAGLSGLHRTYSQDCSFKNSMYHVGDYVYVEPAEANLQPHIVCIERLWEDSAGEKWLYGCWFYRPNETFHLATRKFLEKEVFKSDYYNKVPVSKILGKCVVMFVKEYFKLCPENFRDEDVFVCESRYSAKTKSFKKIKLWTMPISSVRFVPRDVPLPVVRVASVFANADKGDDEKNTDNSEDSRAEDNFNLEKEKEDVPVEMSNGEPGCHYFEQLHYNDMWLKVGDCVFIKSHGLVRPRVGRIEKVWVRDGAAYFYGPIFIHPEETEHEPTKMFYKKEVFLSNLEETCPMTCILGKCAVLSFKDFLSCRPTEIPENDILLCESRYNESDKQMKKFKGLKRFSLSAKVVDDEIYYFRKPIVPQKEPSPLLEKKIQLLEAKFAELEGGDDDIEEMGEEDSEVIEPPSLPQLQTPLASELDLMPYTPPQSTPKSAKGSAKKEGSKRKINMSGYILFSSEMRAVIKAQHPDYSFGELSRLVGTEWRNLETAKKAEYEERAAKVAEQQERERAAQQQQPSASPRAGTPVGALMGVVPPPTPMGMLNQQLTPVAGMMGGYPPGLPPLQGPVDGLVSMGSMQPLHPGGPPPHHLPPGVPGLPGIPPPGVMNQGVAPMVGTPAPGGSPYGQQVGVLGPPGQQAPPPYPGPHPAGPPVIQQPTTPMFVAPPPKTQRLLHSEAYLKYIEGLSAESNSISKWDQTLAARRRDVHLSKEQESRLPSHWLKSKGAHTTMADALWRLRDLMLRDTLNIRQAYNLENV
Experimental: as §1

[6] = molecular target: T6, WDR9(2) (Homo sapiens, UniProt Q9NSI6)
T6 construct: gene BRWD1; bromodomain 2
Experimental: as §1

[7] = molecular target: T7, ATAD2B (Homo sapiens, UniProt Q9ULI0)
T7 construct: bromodomain
Experimental: as §1

[8] = molecular target: T8, BRPF1B (Homo sapiens, UniProt P55201)
T8 construct: gene BRPF1; isoform B bromodomain
Experimental: as §1

[9] = molecular target: T9, BAZ2A (Homo sapiens, UniProt Q9UIF9)
T9 construct: bromodomain
Experimental: as §1

[10] = molecular target: T10, BRD9 (Homo sapiens, UniProt Q9H8M2)
T10 construct: bromodomain
Experimental: as §1

[11] = molecular target: T11, TAF1(2) (Homo sapiens, UniProt P21675)
T11 construct: bromodomain 2
Experimental: as §1

[12] = molecular target: T12, PB1(2) (Homo sapiens, UniProt Q86U86)
T12 construct: gene PBRM1; bromodomain 2
T12 sequence (Q86U86 whole entry): as above
Experimental: as §1

[13] = molecular target: T13, GCN5L2 (Homo sapiens, UniProt Q92830)
T13 construct: gene KAT2A; bromodomain
Experimental: as §1

[14] = molecular target: T14, BAZ1A (Homo sapiens, UniProt Q9NRL2)
T14 construct: bromodomain
Experimental: as §1

[15] = molecular target: T15, BAZ2B (Homo sapiens, UniProt Q9UIF8)
T15 construct: bromodomain
Experimental: as §1

[16] = molecular target: T16, TIF1-phd-bromo (Homo sapiens, UniProt O15164)
T16 construct: gene TRIM24; PHD-bromodomain
Experimental: as §1

[17] = molecular target: T17, BRWD3(2) (Homo sapiens, UniProt Q6RI45)
T17 construct: bromodomain 2
Experimental: as §1

[18] = molecular target: T18, TRIM28 (Homo sapiens, UniProt Q13263)
T18 construct: bromodomain
Experimental: as §1

[19] = molecular target: T19, PB1(3) (Homo sapiens, UniProt Q86U86)
T19 construct: gene PBRM1; bromodomain 3
Experimental: as §1

[20] = molecular target: T20, BRPF1A (Homo sapiens, UniProt P55201)
T20 construct: gene BRPF1; isoform A bromodomain
Experimental: as §1

T1 sequence (Q86U86 whole entry): as above

ΔTm at 10 µM [1]: 0.26 °C
ΔTm at 10 µM [2]: 0.45 °C
ΔTm at 10 µM [3]: 0.04 °C
ΔTm at 10 µM [4]: 0.13 °C
ΔTm at 10 µM [5]: 0.28 °C
ΔTm at 10 µM [6]: 0.38 °C
ΔTm at 10 µM [7]: 0.3 °C
ΔTm at 10 µM [8]: 0.89 °C
ΔTm at 10 µM [9]: 0.32 °C
ΔTm at 10 µM [10]: 1.85 °C
ΔTm at 10 µM [11]: 0.19 °C
ΔTm at 10 µM [12]: 0.27 °C
ΔTm at 10 µM [13]: 0.25 °C
ΔTm at 10 µM [14]: 1.2 °C
ΔTm at 10 µM [15]: 0.38 °C
ΔTm at 10 µM [16]: 0.06 °C
ΔTm at 10 µM [17]: 0.74 °C
ΔTm at 10 µM [18]: -0.11 °C
ΔTm at 10 µM [19]: 0.12 °C
ΔTm at 10 µM [20]: 0.81 °C
Structure (SMILES): Cc1noc(C)c1-c1ccc2c(c1)[C@H](c1ccccc1)N(C)C2=O [PNZ5]

Reference: article PMC5190074, “BET inhibition as a new strategy for the treatment of gastric cancer” (Oncotarget, 2016)
